Patent US20240342185A1, “SMALL MOLECULES INHIBITORS OF CYCLIC GMP-AMP SYNTHASE (cGAS)” (priority 2021, published 2024)
Where two headings read alike, the source gives them in different places.

Legend:
cGAS = cGAS (Homo sapiens, UniProt Q8N884); assay: cell-based
[1] = system: TREX1 KO THP-1 ISG Luc cells; assay: cells; type: cell-based; details: Homo sapiens, 48 h, read-out: ISRE-Luc IC50
THP-1 ISG Luc cells = assay: cells; type: cell-based; details: Homo sapiens, THP-1, 48 h, read-out: CTG IC50
[2] = system: TREX1 KO THP-1 ISG Luc cells; assay: cells; type: cell-based; details: Homo sapiens, cell viability, 48 h, read-out: CTG IC50

Chain of cGAS (Q8N884 whole entry): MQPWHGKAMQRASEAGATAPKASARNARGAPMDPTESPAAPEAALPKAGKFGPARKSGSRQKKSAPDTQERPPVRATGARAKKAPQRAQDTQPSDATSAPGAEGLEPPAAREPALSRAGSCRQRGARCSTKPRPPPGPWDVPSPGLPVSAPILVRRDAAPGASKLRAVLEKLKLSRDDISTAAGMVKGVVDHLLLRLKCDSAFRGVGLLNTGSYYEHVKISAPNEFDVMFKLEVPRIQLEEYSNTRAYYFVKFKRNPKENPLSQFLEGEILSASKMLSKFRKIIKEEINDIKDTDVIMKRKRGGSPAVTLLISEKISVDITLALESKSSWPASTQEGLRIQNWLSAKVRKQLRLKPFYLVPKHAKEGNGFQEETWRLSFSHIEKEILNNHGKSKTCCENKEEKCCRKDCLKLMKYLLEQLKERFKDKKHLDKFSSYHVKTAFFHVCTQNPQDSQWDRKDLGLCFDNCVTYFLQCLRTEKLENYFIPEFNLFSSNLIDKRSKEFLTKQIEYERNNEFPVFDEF

Compound: Nc1cc(C2CCN(C(=O)c3cc4ccccc4[nH]3)CC2)no1 [Compound 2, (4-(5-aminoisoxazol-3-yl)piperidin-1-yl)(1H-indol-2-yl)methanone]
- IC50 (cGAS): 890 nM
- IC50 [1]: 950 nM
- IC50 (THP-1 ISG Luc cells): > 10000 nM
- IC50 [2]: > 10000 nM
